Measured values taken from patent US10786485B1, “Charged ion channel blockers and methods for use” (Nocion Therapeutics, Inc., priority 2019, dated 2020).
Where a name gives a salt, the structure may show the parent alone.

Experiments:
[1] = PAMPA membrane permeability assay; type: in vitro ADME; conditions: GIT lipid, buffer pH 7.4, incubated 4 hours
Description: The PAMPA assay (pION, Inc., Woburn Mass.) was used to determine the ability of compounds of the invention to cross an artificial lipid membrane by passive diffusion. Test compounds were dissolved in DMSO (10 mM) and diluted 200-fold in buffer (pION Inc., pH 7.4) to provide 50 uM stock solutions. Buffer (150 μL) was added to a UV blank plate and stock solutions (150 μL) were transferred to a UV reference plate. The blank and reference spectrum were read using a spectrophotometer. Stock solutions (200 μL) were added to the donor plate of the PAMPA sandwich plate and an accept plate painted with GIT lipid (pION Inc, 5 μL) was placed on top. Buffer (200 μL) was added to the acceptor plate and the PAMPA sandwich plate was incubated for 4 hours. Aliquots (150 μL) from the acceptor plate were added to a UV plate and read as acceptor spectrum. Aliquots (150 μL) of the donor solutions were added to a UV analysis plate and read as donor spectrum. The permeability coefficient of test compounds was calculated using PAMPA Explorer™ software (version 3.5.0.4) based on the AUC of the reference plate, the donor plate, and the acceptor plate.

[2] = biological target: T1, NaV1.7 (Homo sapiens, UniProt Q15858); assay: Whole cell patch clamp, external block of Nav1.7 current; type: cell-based; conditions: test concentration of 30 μM; compound in external solution for 5 minutes; 5 Hz stimulation; read-out: Nav1.7 extracellular inhibition
T1 construct: expressed in transfected cells; host or cells: tetracycline-inducible cell line kept under hygromycin and blasticidin
Description: NaV1.7 was expressed upon induction with tetracycline. Cells were cultured in DMEM containing 10% dialyzed Fetal Bovine Serum (VWR, Radnor, Pa.), 1% Glutamax (VWR, Radnor, Pa.), 1% Penicillin-Streptomycin (VWR, Radnor, Pa.), 100 mg/L Hygromycin (Thermo Fisher Scientific, Waltham, Mass. and 5 mg/L Blasticidin (Alfa Aesar, Haverhill, Mass.). Cells were grown and maintained at 37° C. in a humidified environment containing 10% CO2 in air. Cells were detached from the culture flask for passage and harvested using 0.05% Trypsin-EDTA (Thermo Fisher Scientific, Waltham, Mass.). To induce NaV1.7, cells were induced with tetracycline (0.1-1 μg/mL, IBI Scientific, Peosta, Iowa) the day before recording and plated onto 24-well plates. […] For one 24-well plate, 2 mL of cell suspension was mixed with 23 mL of fresh growth media and 0.1-1 μg/mL tetracycline added. 1 ml of mixed media with cells was then added to each well of a 24-well plate, with a 12 mm coverslip already placed in the bottom of the well. Cells were then incubated in 37° C. and 10% CO2 overnight. The intracellular solution contained the following (in mM) CsCl 135, NaCl 10, EGTA 10, HEPES 10, MgCl2 2, adjusted to pH 7.2 with CsOH. The external solution was a normal Ringer solution containing (in mM) NaCl 155, HEPES 10, glucose 10, KCl 3.5, CaCl2 1.5, MgCl2 1 adjusted to pH 7.4 with NaOH. CsCl is from Alfa Aesar, Haverhill, Mass. All other chemicals are from Sigma-Aldrich, St. Louis, Mo. In order to test the degree of internal block by test compounds the compounds were dissolved in internal solution at the indicated test concentration. […] In order to test the degree of external block by test compounds the compounds were dissolved in external solution at the indicated test concentration. 18-24 hours after cells were induced with tetracycline, coverslips were placed into a chamber filled with Normal Ringer solution at room temperature and the chamber placed on a microscope. Pipettes were pulled from borosilicate glass on a P97 puller (Sutter Instrument, Novato, Calif.) and polished with a MF-830 Microforge (Narishige International USA, Inc, Amityville, N.Y.) to have a resistance of 1.5-2.5 MΩ when filled with CsCl internal solution at room temperature. Healthy cells (those that are round and translucent with no visible blemishes) were chosen for seal formation. A seal was formed between the pipette and the cell, and a brief pulse of suction was used to “break in” and establish the whole-cell configuration. The membrane potential was held at −100 mV before the voltage protocol began. Only cells with series resistance between 1.5-5 MΩ were retained for analysis. The voltage protocol was as follows: Cells were held at −100 mV for 12 ms followed by a hyperpolarizing step to −105 mV for 12 ms to monitor the leak. Cells were then stepped back to −100 mV for 40 ms. Cells were then depolarized to −20 mV for 10 ms and then returned to −100 mV for 26 ms (The FIGURE). Once the recording was started, the voltage protocol was run at 30 second intervals for 5 minutes to get a stable baseline. This is followed by 5 Hz stimulation of the same voltage protocol run until the end of experiment. […] Currents were recorded using PatchMaster software with Heka EPC10 (HEKA Electronics, Lambrecht, Germany). […] The data was plotted using the Patchmaster software (HEKA Electronics, Lambrecht, Germany) and analyzed by plotting the minimum current during the voltage step to −20 mV (peak inward current) as a function of time. […]

[3] = biological target: T1, NaV1.7; assay: Whole cell patch clamp, internal block of Nav1.7 current; type: cell-based; conditions: test concentration of 10 μM; compound dissolved in internal solution; 5 Hz stimulation; read-out: Nav1.7 intracellular inhibition
Description: NaV1.7 was expressed upon induction with tetracycline. Cells were cultured in DMEM containing 10% dialyzed Fetal Bovine Serum (VWR, Radnor, Pa.), 1% Glutamax (VWR, Radnor, Pa.), 1% Penicillin-Streptomycin (VWR, Radnor, Pa.), 100 mg/L Hygromycin (Thermo Fisher Scientific, Waltham, Mass. and 5 mg/L Blasticidin (Alfa Aesar, Haverhill, Mass.). Cells were grown and maintained at 37° C. in a humidified environment containing 10% CO2 in air. Cells were detached from the culture flask for passage and harvested using 0.05% Trypsin-EDTA (Thermo Fisher Scientific, Waltham, Mass.). To induce NaV1.7, cells were induced with tetracycline (0.1-1 μg/mL, IBI Scientific, Peosta, Iowa) the day before recording and plated onto 24-well plates. […] For one 24-well plate, 2 mL of cell suspension was mixed with 23 mL of fresh growth media and 0.1-1 μg/mL tetracycline added. 1 ml of mixed media with cells was then added to each well of a 24-well plate, with a 12 mm coverslip already placed in the bottom of the well. Cells were then incubated in 37° C. and 10% CO2 overnight. The intracellular solution contained the following (in mM) CsCl 135, NaCl 10, EGTA 10, HEPES 10, MgCl2 2, adjusted to pH 7.2 with CsOH. The external solution was a normal Ringer solution containing (in mM) NaCl 155, HEPES 10, glucose 10, KCl 3.5, CaCl2 1.5, MgCl2 1 adjusted to pH 7.4 with NaOH. CsCl is from Alfa Aesar, Haverhill, Mass. All other chemicals are from Sigma-Aldrich, St. Louis, Mo. In order to test the degree of internal block by test compounds the compounds were dissolved in internal solution at the indicated test concentration. […] In order to test the degree of external block by test compounds the compounds were dissolved in external solution at the indicated test concentration. 18-24 hours after cells were induced with tetracycline, coverslips were placed into a chamber filled with Normal Ringer solution at room temperature and the chamber placed on a microscope. Pipettes were pulled from borosilicate glass on a P97 puller (Sutter Instrument, Novato, Calif.) and polished with a MF-830 Microforge (Narishige International USA, Inc, Amityville, N.Y.) to have a resistance of 1.5-2.5 MΩ when filled with CsCl internal solution at room temperature. Healthy cells (those that are round and translucent with no visible blemishes) were chosen for seal formation. A seal was formed between the pipette and the cell, and a brief pulse of suction was used to “break in” and establish the whole-cell configuration. The membrane potential was held at −100 mV before the voltage protocol began. Only cells with series resistance between 1.5-5 MΩ were retained for analysis. The voltage protocol was as follows: Cells were held at −100 mV for 12 ms followed by a hyperpolarizing step to −105 mV for 12 ms to monitor the leak. Cells were then stepped back to −100 mV for 40 ms. Cells were then depolarized to −20 mV for 10 ms and then returned to −100 mV for 26 ms (The FIGURE). Once the recording was started, the voltage protocol was run at 30 second intervals for 5 minutes to get a stable baseline. […] Currents were recorded using PatchMaster software with Heka EPC10 (HEKA Electronics, Lambrecht, Germany). […] The data was plotted using the Patchmaster software (HEKA Electronics, Lambrecht, Germany) and analyzed by plotting the minimum current during the voltage step to −20 mV (peak inward current) as a function of time. […]

T1 sequence (Q15858 whole entry): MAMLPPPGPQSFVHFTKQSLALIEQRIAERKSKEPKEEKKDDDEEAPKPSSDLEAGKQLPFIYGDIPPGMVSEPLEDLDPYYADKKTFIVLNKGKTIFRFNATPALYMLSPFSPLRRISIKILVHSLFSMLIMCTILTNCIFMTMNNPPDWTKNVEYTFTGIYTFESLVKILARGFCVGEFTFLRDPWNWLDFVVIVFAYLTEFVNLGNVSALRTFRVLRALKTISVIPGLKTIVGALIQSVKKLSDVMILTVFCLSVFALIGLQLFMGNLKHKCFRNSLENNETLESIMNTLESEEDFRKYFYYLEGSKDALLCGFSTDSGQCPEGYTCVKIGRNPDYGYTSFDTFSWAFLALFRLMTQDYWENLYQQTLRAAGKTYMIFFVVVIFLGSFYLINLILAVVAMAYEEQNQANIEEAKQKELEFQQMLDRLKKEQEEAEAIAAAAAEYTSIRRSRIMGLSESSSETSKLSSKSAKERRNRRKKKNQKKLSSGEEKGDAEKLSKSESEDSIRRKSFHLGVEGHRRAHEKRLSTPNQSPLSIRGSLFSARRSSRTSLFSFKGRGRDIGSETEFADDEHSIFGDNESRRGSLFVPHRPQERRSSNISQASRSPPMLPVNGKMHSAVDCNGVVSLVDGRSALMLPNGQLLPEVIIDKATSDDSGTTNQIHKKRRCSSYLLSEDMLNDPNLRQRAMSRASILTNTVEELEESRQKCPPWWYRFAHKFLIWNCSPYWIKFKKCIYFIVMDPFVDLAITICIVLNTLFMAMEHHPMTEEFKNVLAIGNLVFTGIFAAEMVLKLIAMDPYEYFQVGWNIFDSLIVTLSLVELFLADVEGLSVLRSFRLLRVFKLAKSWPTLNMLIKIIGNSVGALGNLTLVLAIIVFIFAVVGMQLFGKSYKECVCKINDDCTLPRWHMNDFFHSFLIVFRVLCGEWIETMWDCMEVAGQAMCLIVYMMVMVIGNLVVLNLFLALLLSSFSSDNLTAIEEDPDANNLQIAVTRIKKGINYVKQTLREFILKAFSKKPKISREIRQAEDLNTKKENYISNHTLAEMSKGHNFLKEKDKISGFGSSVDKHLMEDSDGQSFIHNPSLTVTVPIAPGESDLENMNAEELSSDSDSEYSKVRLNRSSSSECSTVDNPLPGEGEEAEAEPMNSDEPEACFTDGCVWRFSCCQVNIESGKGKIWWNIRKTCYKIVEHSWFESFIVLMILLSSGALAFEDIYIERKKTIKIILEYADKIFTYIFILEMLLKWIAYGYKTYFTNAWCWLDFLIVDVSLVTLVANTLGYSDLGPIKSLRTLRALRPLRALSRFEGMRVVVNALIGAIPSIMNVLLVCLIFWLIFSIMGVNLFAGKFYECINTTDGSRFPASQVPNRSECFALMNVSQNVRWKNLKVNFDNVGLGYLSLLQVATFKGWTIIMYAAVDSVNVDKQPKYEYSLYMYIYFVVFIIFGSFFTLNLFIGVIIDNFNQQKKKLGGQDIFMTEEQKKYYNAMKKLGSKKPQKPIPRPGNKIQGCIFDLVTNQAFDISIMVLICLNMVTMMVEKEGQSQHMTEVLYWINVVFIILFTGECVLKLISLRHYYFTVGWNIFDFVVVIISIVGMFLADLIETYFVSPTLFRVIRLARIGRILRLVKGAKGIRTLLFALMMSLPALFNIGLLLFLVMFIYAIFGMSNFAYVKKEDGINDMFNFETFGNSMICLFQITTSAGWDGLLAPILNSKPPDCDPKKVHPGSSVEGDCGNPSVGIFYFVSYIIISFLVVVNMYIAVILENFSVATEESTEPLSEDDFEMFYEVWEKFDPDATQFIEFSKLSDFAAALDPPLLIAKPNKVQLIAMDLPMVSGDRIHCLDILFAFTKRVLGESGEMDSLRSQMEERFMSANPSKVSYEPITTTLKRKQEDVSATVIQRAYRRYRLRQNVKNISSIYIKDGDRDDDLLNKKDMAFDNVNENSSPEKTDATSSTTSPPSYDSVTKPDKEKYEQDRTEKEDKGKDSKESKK

Compound | Papp at 4 h, 50 µM [1] | inhibition at 30 µM [2] | inhibition at 10 µM [3]
CCNC(=O)Cn1ccc[n+]1CC(=O)Nc1c(C)cccc1C.[Br-] [Compound 5′A, 2-(2-((2,6-dimethylphenyl)amino)-2-oxoethyl)-1-(2-(ethylamino)-2-oxoethyl)-1H-pyrazol-2-ium bromide] | ≤ 12 nm/s | < 25% | > 65%
Cc1cn(C)[n+](CC(=O)Nc2c(C)cccc2C)c1 [1′A, 2-(2-((2,6-dimethylphenyl)amino)-2-oxoethyl)-1,4-dimethyl-1H-pyrazol-2-ium bromide] |  | < 25% | > 65%
Cc1cccc(C)c1NC(=O)C[n+]1cccn1C1CCCCC1.[Br-] [Compound 3′A, 1-cyclohexyl-2-(2-((2,6-dimethylphenyl)amino)-2-oxoethyl)-1H-pyrazol-2-ium bromide] | ≤ 12 nm/s | < 25% | > 65%
Cc1cccc(C)c1NC(=O)C[n+]1cccn1CC(C)C.[Br-] [Compound 2′A, 2-(2-((2,6-dimethylphenyl)amino)-2-oxoethyl)-1-isobutyl-1H-pyrazol-2-ium bromide] | ≤ 12 nm/s | < 25% | > 65%
Cc1cccc(C)c1NC(=O)C[n+]1cccn1-c1ccccc1 [4′A, 2-(2-((2,6-dimethylphenyl)amino)-2-oxoethyl)-1-phenyl-1H-pyrazol-2-ium Formate] |  | < 25% | > 65%
